Patent publication US10092028B2, “Compositions comprising cinnamaldehyde and zinc and methods of using such compositions” (NESTEC S.A., priority 2014, dated 2018)

Key:
[1] = comparative taste testing in human subjects; assay type: in vivo; conditions: 4.8 ppm capsaicin or 350 ppm cinnamaldehyde, FIG. 9
Description: Human subjects were administered a composition comprising 4.8 ppm capsaicin or 350 ppm cinnamaldehyde. […] 87.9% of the participants judged capsaicin intense to very intense, compared to only 20.5% for cinnamaldehyde. To achieve a similar effect on fat oxidation of capsaicin and cinnamaldehyde, the dose of capsaicin is about 1.5 times less than the maximum that can be used as a flavor (7 ppm according to Fenaroli's Handbook; Burdock, 2010), and the dose of cinnamaldehyde is about 17.5 times less than the maximum that can be used as a flavor (6191.0 ppm according to Fenaroli's Handbook; Burdock, 2010).

[2] = nose temperature after ingestion in human subjects; assay type: in vivo; conditions: fifteen minutes following ingestion, FIG. 7
Description: (§1) The nose temperature of the subjects was analyzed over the fifteen minutes following ingestion of the various compounds. […] The increased sympathetic activity identified by measuring the facial temperature (increased blood flow on the chin) might explain the increased energy expenditure measured by indirect calorimetry.

[3] = in vivo; cited from earlier work
[4] = postprandial fat oxidation after ingestion in human subjects; assay type: in vivo
Description: The postprandial fat oxidation was measured over the 90 minutes following ingestion of the various compounds.

[5] = energy expenditure after ingestion in human subjects; assay type: in vivo
Description: Human subjects were administered placebo, a cooling flavor, capsaicin, or cinnamaldehyde. The energy expenditure was measured over the eighty minutes following ingestion. […] The increased sympathetic activity identified by measuring the facial temperature (increased blood flow on the chin) might explain the increased energy expenditure measured by indirect calorimetry.

TRPA1 = TRPA1 (Homo sapiens, UniProt O75762); conditions: read-out: EC50 for activation of TRPA1; cited from earlier work
[6] = insulin sensitivity in mice with chronic ingestion, high fat diet; assay type: in vivo; conditions: mice chronically fed high fat diet containing 0.2 wt % cinnamaldehyde, FIG. 11
Description: The composition can thereby reduce glycemia.

[7] = biological target: T1, hTRPA1 expressed in CHO cells (Homo sapiens, UniProt O75762); assay: in vitro activity of hTRPA1 expressed in CHO cells, intracellular calcium with a fluorescent dye; assay type: cell-based; conditions: cinnamaldehyde at 50 mM (C+), according to a dose-response curve
T1 construct: expressed in transfected cells; host or cells: CHO cells

TRPV1 = TRPV1 (Homo sapiens, UniProt Q8NER1); conditions: cited from earlier work
[8] = chin temperature after ingestion in human subjects (sympathetic activity); assay type: in vivo
Description: as §1, with “chin” for “nose”, “measured” for “analyzed”, “eighty” for “fifteen”

[9] = at a flavoring level judged significantly less intense than capsaicin

T1 sequence (O75762 whole entry): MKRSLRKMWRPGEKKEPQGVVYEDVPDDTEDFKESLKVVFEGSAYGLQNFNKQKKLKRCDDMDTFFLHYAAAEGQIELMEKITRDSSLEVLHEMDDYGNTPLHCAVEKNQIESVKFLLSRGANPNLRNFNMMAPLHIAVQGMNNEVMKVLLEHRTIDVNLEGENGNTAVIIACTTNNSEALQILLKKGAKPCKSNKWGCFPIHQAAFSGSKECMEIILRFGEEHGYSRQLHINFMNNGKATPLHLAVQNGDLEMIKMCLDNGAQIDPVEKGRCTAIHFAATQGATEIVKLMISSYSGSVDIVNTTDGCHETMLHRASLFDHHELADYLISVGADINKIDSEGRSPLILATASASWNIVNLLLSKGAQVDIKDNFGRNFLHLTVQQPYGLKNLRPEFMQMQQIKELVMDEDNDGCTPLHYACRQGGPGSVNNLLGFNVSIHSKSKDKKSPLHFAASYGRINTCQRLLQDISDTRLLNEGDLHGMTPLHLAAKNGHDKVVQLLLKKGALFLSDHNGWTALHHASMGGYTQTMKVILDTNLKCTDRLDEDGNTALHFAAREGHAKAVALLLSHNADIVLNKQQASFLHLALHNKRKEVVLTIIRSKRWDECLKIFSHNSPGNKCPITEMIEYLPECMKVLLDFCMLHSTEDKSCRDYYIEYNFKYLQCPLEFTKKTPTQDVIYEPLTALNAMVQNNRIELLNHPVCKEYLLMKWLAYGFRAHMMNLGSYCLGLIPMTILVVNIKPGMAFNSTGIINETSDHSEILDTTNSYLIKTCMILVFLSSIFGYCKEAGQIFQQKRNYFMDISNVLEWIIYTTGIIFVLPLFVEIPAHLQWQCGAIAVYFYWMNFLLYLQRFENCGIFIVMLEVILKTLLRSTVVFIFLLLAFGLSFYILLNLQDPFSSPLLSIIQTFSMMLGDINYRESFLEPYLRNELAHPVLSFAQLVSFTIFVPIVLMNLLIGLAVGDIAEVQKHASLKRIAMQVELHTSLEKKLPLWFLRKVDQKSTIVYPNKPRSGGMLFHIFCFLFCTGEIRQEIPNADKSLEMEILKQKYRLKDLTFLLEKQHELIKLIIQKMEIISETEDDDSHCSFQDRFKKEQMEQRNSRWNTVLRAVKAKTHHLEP
Sequence of TRPA1 (O75762 whole entry): as above
Sequence of TRPV1 (Q8NER1 whole entry, species assumed): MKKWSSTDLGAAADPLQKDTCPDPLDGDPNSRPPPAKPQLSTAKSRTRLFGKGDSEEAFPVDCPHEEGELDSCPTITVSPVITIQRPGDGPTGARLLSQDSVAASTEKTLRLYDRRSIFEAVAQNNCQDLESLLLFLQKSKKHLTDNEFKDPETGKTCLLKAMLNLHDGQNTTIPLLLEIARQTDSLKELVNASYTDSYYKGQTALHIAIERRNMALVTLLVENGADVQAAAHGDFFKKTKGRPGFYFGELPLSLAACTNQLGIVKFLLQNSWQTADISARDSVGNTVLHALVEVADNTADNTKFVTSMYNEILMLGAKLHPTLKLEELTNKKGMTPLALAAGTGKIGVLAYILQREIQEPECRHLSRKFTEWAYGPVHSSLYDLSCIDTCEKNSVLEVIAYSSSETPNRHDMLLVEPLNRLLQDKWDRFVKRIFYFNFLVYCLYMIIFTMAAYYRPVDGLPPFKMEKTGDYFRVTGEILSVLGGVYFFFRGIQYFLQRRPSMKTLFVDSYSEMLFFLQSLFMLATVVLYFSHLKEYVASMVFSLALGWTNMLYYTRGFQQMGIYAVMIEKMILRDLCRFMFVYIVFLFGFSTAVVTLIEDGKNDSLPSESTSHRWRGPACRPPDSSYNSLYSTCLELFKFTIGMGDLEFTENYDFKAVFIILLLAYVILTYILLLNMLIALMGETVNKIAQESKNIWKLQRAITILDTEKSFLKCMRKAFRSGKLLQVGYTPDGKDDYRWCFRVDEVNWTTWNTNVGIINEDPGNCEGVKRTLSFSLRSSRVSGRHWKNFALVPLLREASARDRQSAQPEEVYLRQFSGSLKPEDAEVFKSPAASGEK

Row | Compound | participants who judged the taste intense to very intense [1] | nose temperature [2] | efficient dose for increasing energy expenditure and fat oxidation [3] | postprandial fat oxidation compared to placebo ([4]; 90 minutes following ingestion, time course and AUC, FIGS. 5 and 6) | effect on fat oxidation compared to capsaicin [4, 9] | impact on energy expenditure compared to capsaicin [5, 9] | energy expenditure compared to placebo ([5]; eighty minutes following ingestion, time course and AUC, FIGS. 3 and 4) | EC50 (TRPA1) | insulin sensitivity relative to same high fat diet without cinnamaldehyde [6] | activity of hTRPA1, positive control efficacy [7] | activation of TRPV1 (TRPV1) | impact on sympathetic nervous system activity compared to capsaicin [8, 9] | chin temperature relative to baseline ([8]; eighty minutes following ingestion, FIG. 8)
1 | COc1cc(CNC(=O)CCCC/C=C/C(C)C)ccc1O [capsaicin] | 87.9% | increase nose temperatures | ≥ 20 mg | – | – | – | – | – | – | – | – | – | –
2 | O=CC=Cc1ccccc1 [cinnamaldehyde] | – | increase nose temperatures | – | maintained at higher levels | equivalent effect | significantly higher impact | increased | ~10 µM | improved insulin sensitivity | maximum efficacy | but not TRPV1 or TRPM8 | significantly higher impact | increases chin temperature for a prolonged time
